# Measured values as given in patent US20250302862A1, “SMALL RNA DRUG FOR INHIBITING ACTIVITY OF CANCER CELLS” (Institute of Basic Medical Sciences Chinese Academy of …, priority 2022, published 2025).
# How the values were obtained:
# [1] = test system: pancreatic cancer ASPC-1 cells; assay: Cell invasion (Matrigel Transwell); format: cell-based, human; conditions: 100 nmol/L, jetPRIME, 72 h
# Protocol: 1) Matrigel basement membrane matrix was thawed on crushed ice one night before and diluted with serum-free medium to a final concentration of 200-300 ug/mL. 100 uL of the diluted Matrigel was added to each upper chamber, let stand at 37° C. for 30 min, and the supernatant was aspirated. ASPC-1 cells and BXPC-3 cells with a cell density of more than 90% in 10 cm^2 dishes were digested and resuspended with 1 mL of serum-free medium and counted. 100,000 cells (100 uL) were plated in the upper chamber, and complete medium with 10% FBS was added to the lower chamber of each chamber. Transfection was performed after 12 h, and the groups (3 wells per group) were divided as follows: • blank control group: 10 uL of jetPRIME Buffer • negative control group (NC group) and experimental group: 10 uL of jetPRIME Buffer was mixed well with 0.5 uL of jetPRIME reagent and 0.5 uL of small RNA and let stand for 15 min, and then was added to each well at a 10 uL system (final concentration 100 nmol/L) • Note: 100 uL of nuclease-free water was added to 2 nmol of small RNA dry powder for dissolution at a storage concentration of 20 umol/L
# After 72 h, the medium in upper and lower chambers was discarded. The cells were fixed with paraformaldehyde at room temperature for 15 min, stained with 0.1% crystal violet at room temperature for 15 min, and rinsed with PBS. […]
# [2] = Body weight of mice with primary lung cancer; format: in vivo, mouse; conditions: KP mice, 10 nmol daily by gavage for one month, sphingosine(d18:1) delivery system, vs NC group
# Source text: (§1) The mouse model of primary lung cancer was Kras^LSL-G12Dp53^fl/fl (KP).
# (§2) Mice were weighed and assigned to the negative control group (NC group) and HQi-sRNA-2 group randomly. The NC group was the negative control, in which a sphingosine(d18:1)-NC-sRNA herbal medicine delivery system was constructed from NC-sRNA. The HQi-sRNA-2 group was the experimental group, in which a sphingosine(d18:1)-HQi-sRNA-2 herbal medicine delivery system was constructed from HQi-sRNA-2.
# (§3) The herbal medicine delivery system was constructed by heating and mixing 10 nmol of sRNA, 100 ug of sphingosine(d18:1) and 300 ul of sterile enzyme-free water in a water bath at 90° C. for 15 minutes.
# (§4) Each mouse with a uniform body weight was dosed by gavage. Each mouse was given 10 nmol of HQi-sRNA-2 mimic daily by gavage for one month.
# The body weight of each mouse was recorded, the curve of body weight over time was plotted, and statistical analysis was performed.
# [3] = test system: primary lung cancer Kras^LSL-G12Dp53^fl/fl (KP) mouse model; assay: Tumor tissue apoptosis, caspase-3 immunohistochemistry of lung sections; format: in vivo; conditions: 10 nmol daily by gavage for one month, vs NC group
# Source text: as §1, §2, §3, §4
# The lungs of mice were collected to prepare pathological sections. The left lung was collected and sliced at the largest surface for every mouse, and subjected to immunohistochemistry of caspase-3. The area of positive cell population in the whole pathological section was counted, the tumor burden was calculated, and statistical analysis was performed.
# [4] = test system: cyclooxygenase-2 (COX2); assay: COX2 mRNA (RT-PCR/QPCR) and protein (western blot) in H460 cells; format: cell-based, human; conditions: final concentration 10 nmol/L
# Protocol: Method for cell experiment: H460 cells with a cell density of more than 90% in 10 cm2 dishes were plated in 12-well plates (2 plates) according to the cell growth rate, and transfected after 12 h, and the groups were divided as follows: • blank control group (4 wells): 200 uL of opti-MEM per well • negative control group (NC group) and experimental group (3 wells each): the system of each well was as follows • A. 100 uL of opti-MEM and 2 uL of iMax were mixed well for 5 min • B. 100 uL of opti-MEM and 5 uL of small RNA (final concentration 10 nmol/L) were mixed well • C. solution A and solution B were mixed well and let stand for 15 min, and then was added to each well at a 200 uL system • Note: 100 uL of nuclease-free water was added to 2 nmol of small RNA dry powder for dissolution at a storage concentration of 20 umol/L
# Cells were collected with Trizo after 24 h of incubation and RNA was extracted. Cells on another plate were collected with RIPA lysis buffer after 48 h of incubation and protein was extracted.
# (§5) The relative amount of COX-2 mRNA in the RNA in Method 1 and Method 2 was measured by RT-PCR and QPCR technologies.
# (§6) The relative amount of COX-2 protein in the protein in Method 1 and Method 2 was measured by western blot technology.
# [5] = test system: cyclooxygenase-2 (COX2); assay: COX2 mRNA and protein in lung tissues of mice with lung cancer; format: in vivo, mouse; conditions: lung tissues of KP mice, 10 nmol daily by gavage for one month
# Source text: Methods for animal experiment: the mouse model of primary lung cancer was KrasLSL-G12Dp53fl/fl (KP).
# Mice were weighed and assigned to the NC group and HQi-sRNA-2 group randomly. The NC group was the negative control, in which a sphingosine(d18:1)-NC-sRNA herbal medicine delivery system was constructed from NC-sRNA. The HQi-sRNA-2 group was the experimental group, in which a sphingosine(d18:1)-HQi-sRNA-2 herbal medicine delivery system was constructed from HQi-sRNA-2.
# as §3, §4
# RNA and protein were extracted from the right lung of all mice.
# as §5, §6
# [6] = test system: cyclooxygenase-2 (COX2); assay: Dual luciferase reporter assay in 293T cells; format: cell-based
# Protocol: The targeting effect of HQi-sRNA-2 obtained from medicinal plants by the inventors on cyclooxygenase-2 (COX2) was studied by a dual luciferase reporter detection system, so as to study its potential to exert lipid-lowering effects.
# 293T cells were cultured and transfected with the HQi-sRNA-2 to be screened and NC-sRNA, respectively, and then with the dual luciferase reporter plasmid of COX2. The dual luciferase activity was detected after 48 h.
substance,measurement,setting,value
"MDM-sRNA-39: small RNA derived from Maytenus hookeri, sequence GGGAUUGUAGUUCAAUUGGUCAGAGCACC (listed as RNA, chemistry not given here)",cell invasion,[1],inhibits
"HQi-sRNA-2: small RNA derived from Scutellaria baicalensis, sequence AUGGUUCGAUUCCGGAGAGGG (listed as RNA, chemistry not given here)",body weight of mice with primary lung cancer,[2],significantly maintained
same,tumor tissue apoptosis of mice with primary lung cancer,[3],significantly increased
same,mRNA level of COX2,"[4]; 24 h, RT-PCR and QPCR",significantly down-regulate
same,protein level of COX2,"[4]; 48 h, western blot",significantly down-regulate
same,mRNA level of COX2,[5]; RT-PCR and QPCR,significantly down-regulate
same,protein level of COX2,[5]; western blot,significantly down-regulate
same,luciferase activity,"[6]; COX2 dual luciferase reporter plasmid, 48 h, compared with NC-sRNA",significantly reduce
same,luciferase activity,[6]; base sequence of the binding site mutated,restored
